This data set in a line: In vivo treatment of healthy PVG.1N rats with single substances (safety data). Conditions: i.v.; for (severe) side effects (breathing, sleep, food intake, mobility, skin, weight): Picibanil 0.35 μg/rat, PGE2 1 μg/rat, PGE1 1 μg/rat; for Flow cytometric analyzes on blood cells (Teff, Treg, CD4, CD8, NK, NKT cells) compared to placebo: data not shown. The protocol:
Safety data were performed on a total of 4 rats of the healthy strain PVG.1N: they were given the clinically intended final concentrations of the single substances i.v. in the following doses: Picibanil (0.35 μg/rat), PGE2 (1 μg/rat), PGE1 (1 μg/rat) and placebo (PBS).
On the technique in general: In flow cytometry, cells or beads pass a laser one at a time.

The structures appear in SMILES notation.

As for `CCCCC[C@H](O)/C=C/[C@H]1[C@H](O)CC(=O)[C@@H]1CCCCCCC(=O)O` [PGE1, Alprostadil], the “(severe) side effects (breathing, sleep, food intake, mobility, skin, weight)” value is listed as “no (severe) side effects” and the “Flow cytometric analyzes on blood cells (Teff, Treg, CD4, CD8, NK, NKT cells) compared to placebo” value was “no difference compared to the placebo controls”.

With `CCCCC[C@H](O)/C=C/[C@H]1[C@H](O)CC(=O)[C@@H]1C/C=C\CCCC(=O)O` [PGE2, Prostaglandin E2], the “(severe) side effects (breathing, sleep, food intake, mobility, skin, weight)” value is listed as “no (severe) side effects” and the “Flow cytometric analyzes on blood cells (Teff, Treg, CD4, CD8, NK, NKT cells) compared to placebo” value is recorded as “no difference compared to the placebo controls”.

The record behind these values is patent US10912820B2, “Use of immunomodulatory kits for immunotherapeutic treatment of patients with myeloid leukemias” (Modiblast Pharma GmbH, priority 2014, dated 2021).
